Measurements from ChEMBL document CHEMBL4610081, “Anti-inflammatory Metabolites from Chaetomium nigricolor” (J Nat Prod, 2020).

Legend:
[1] = system: RAW264.7; test: Inhibition of LPS-induced ERK phosphorylation in mouse RAW264.7 cell at 10 uM preincubated for 3 hrs followed by LPS-stimulation and measured after 1 hr by Western blot analysis (reference value: 6.92); format: cell-based
[2] = system: RAW264.7; test: Trans-suppression of NFkappaB in mouse RAW264.7 cells assessed as LPS-induced IKB-apha phosphorylation at 5 uM preincubated for 3 hrs followed by LPS-stimulation and measured after 1 hr by Western blot analysis (reference value: 6.04); format: cell-based
[3] = system: RAW264.7; test: Antiinflammatory activity against mouse RAW264.7 cells assessed as reduction in LPS-induced TNF-alpha mRNA expression preincubated for 3 hrs followed by LPS-stimulation and measured after 12 hrs by RT-PCR analysis; format: functional, cell-based
[4] = system: RAW264.7; test: Trans-suppression of NFkappaB in mouse RAW264.7 cells assessed as LPS-induced nuclear-p50 level at 10 uM preincubated for 3 hrs followed by LPS-stimulation and measured after 1 hr by Western blot analysis (reference value: 3.2); format: cell-based
[5] = system: RAW264.7; test: Inhibition of LPS-induced JNK protein expression in mouse RAW264.7 cell at 5 uM preincubated for 3 hrs followed by LPS-stimulation and measured after 1 hr by Western blot analysis (reference value: 1.21); format: functional
[6] = system: RAW264.7; test: Trans-suppression of NFkappaB in mouse RAW264.7 cells assessed as LPS-induced cytosol-p50 level at 5 uM preincubated for 3 hrs followed by LPS-stimulation and measured after 1 hr by Western blot analysis (reference value: 0.28); format: cell-based
[7] = target: MAP kinase p38 (Mus musculus) (UniProt P47811+O08911+Q9WUI1+Q9Z1B7); test: Inhibition of LPS-induced p38 MAPK phosphorylation in mouse RAW264.7 cell at 10 uM preincubated for 3 hrs followed by LPS-stimulation and measured after 1 hr by Western blot analysis (reference value: 5.59); format: cell-based
[8] = system: RAW264.7; test: Inhibition of LPS-induced ERK phosphorylation in mouse RAW264.7 cell at 2.5 uM preincubated for 3 hrs followed by LPS-stimulation and measured after 1 hr by Western blot analysis (reference value: 6.92); format: cell-based
[9] = system: RAW264.7; test: Trans-suppression of NFkappaB in mouse RAW264.7 cells assessed as LPS-induced cytosol-p65 level at 2.5 uM preincubated for 3 hrs followed by LPS-stimulation and measured after 1 hr by Western blot analysis (reference value: 0.09); format: cell-based
[10] = system: RAW264.7; test: Trans-suppression of NFkappaB in mouse RAW264.7 cells assessed as LPS-induced nuclear-p50 level at 2.5 uM preincubated for 3 hrs followed by LPS-stimulation and measured after 1 hr by Western blot analysis (reference value: 3.2); format: cell-based
[11] = system: RAW264.7; test: Trans-suppression of NFkappaB in mouse RAW264.7 cells assessed as LPS-induced nuclear-p65 level at 10 uM preincubated for 3 hrs followed by LPS-stimulation and measured after 1 hr by Western blot analysis (reference value: 3.3); format: cell-based
[12] = system: RAW264.7; test: Antiinflammatory activity against mouse RAW264.7 cells assessed as inhibition of LPS-induced NO production preincubated for 3 hrs followed by LPS-stimulation and measured after 24 hrs by Griess reagent based assay; format: functional, cell-based
[13] = system: RAW264.7; test: Antiinflammatory activity against mouse RAW264.7 cells assessed as reduction in LPS-induced IL6 mRNA expression preincubated for 3 hrs followed by LPS-stimulation and measured after 12 hrs by RT-PCR analysis; format: functional, cell-based
[14] = system: RAW264.7; test: Inhibition of LPS-induced JNK phosphorylation in mouse RAW264.7 cell at 5 uM preincubated for 3 hrs followed by LPS-stimulation and measured after 1 hr by Western blot analysis (reference value: 8.88); format: cell-based
[15] = system: RAW264.7; test: Trans-suppression of NFkappaB in mouse RAW264.7 cells assessed as LPS-induced cytosol-p65 level at 5 uM preincubated for 3 hrs followed by LPS-stimulation and measured after 1 hr by Western blot analysis (reference value: 0.09); format: cell-based
[16] = system: RAW264.7; test: Trans-suppression of NFkappaB in mouse RAW264.7 cells assessed as LPS-induced IKB-apha degradation at 5 uM preincubated for 3 hrs followed by LPS-stimulation and measured after 1 hr by Western blot analysis (reference value: 0.29); format: cell-based
[17] = system: RAW264.7; test: Antiinflammatory activity against mouse RAW264.7 cells assessed as reduction in LPS-induced IL-1beta mRNA expression preincubated for 3 hrs followed by LPS-stimulation and measured after 12 hrs by RT-PCR analysis; format: functional, cell-based
[18] = system: RAW264.7; test: Inhibition of LPS-induced JNK protein expression in mouse RAW264.7 cell at 2.5 uM preincubated for 3 hrs followed by LPS-stimulation and measured after 1 hr by Western blot analysis (reference value: 1.21); format: functional
[19] = system: RAW264.7; test: Antiinflammatory activity against mouse RAW264.7 cells assessed as LPS-induced INOS mRNA expression at 10 uM preincubated for 3 hrs followed by LPS-stimulation and measured after 24 hrs by RT-PCR analysis (reference value: 8.2); format: functional
[20] = system: RAW264.7; test: Antiinflammatory activity against mouse RAW264.7 cells assessed as LPS-induced COX-2 mRNA expression at 10 uM preincubated for 3 hrs followed by LPS-stimulation and measured after 24 hrs by RT-PCR analysis (reference value: 14.39); format: functional
[21] = system: RAW264.7; test: Trans-suppression of NFkappaB in mouse RAW264.7 cells assessed as LPS-induced IKB-apha degradation at 10 uM preincubated for 3 hrs followed by LPS-stimulation and measured after 1 hr by Western blot analysis (reference value: 0.29); format: cell-based
[22] = system: RAW264.7; test: Trans-suppression of NFkappaB in mouse RAW264.7 cells assessed as LPS-induced cytosol-p50 level at 10 uM preincubated for 3 hrs followed by LPS-stimulation and measured after 1 hr by Western blot analysis (reference value: 0.28); format: cell-based
[23] = system: RAW264.7; test: Antiinflammatory activity against mouse RAW264.7 cells assessed as LPS-induced COX-2 mRNA expression at 2.5 uM preincubated for 3 hrs followed by LPS-stimulation and measured after 24 hrs by RT-PCR analysis (reference value: 14.39); format: functional
[24] = system: RAW264.7; test: Antiinflammatory activity against mouse RAW264.7 cells assessed as LPS-induced COX-2 mRNA expression at 5 uM preincubated for 3 hrs followed by LPS-stimulation and measured after 24 hrs by RT-PCR analysis (reference value: 14.39); format: functional
[25] = system: RAW264.7; test: Inhibition of LPS-induced p38 MAPK protein expression in mouse RAW264.7 cell at 5 uM preincubated for 3 hrs followed by LPS-stimulation and measured after 1 hr by Western blot analysis (reference value: 1.1); format: functional
[26] = system: RAW264.7; test: Inhibition of LPS-induced ERK protein expression in mouse RAW264.7 cell at 2.5 uM preincubated for 3 hrs followed by LPS-stimulation and measured after 1 hr by Western blot analysis (reference value: 1.13); format: functional
[27] = system: RAW264.7; test: Cytotoxicity against mouse RAW264.7 cells assessed as reduction cell viability at 20 uM by MTT assay; format: cell-based; conditions: raw264.7, 20 µM
[28] = system: RAW264.7; test: Trans-suppression of NFkappaB in mouse RAW264.7 cells assessed as LPS-induced nuclear-p65 level at 5 uM preincubated for 3 hrs followed by LPS-stimulation and measured after 1 hr by Western blot analysis (reference value: 3.3); format: cell-based

COc1cc(OC)c2c(O)c3c(=O)cc(C)oc3c(-c3c(O)cc4cc(O)c5c(=O)cc(C)oc5c4c3OC)c2c1 (atropisomer aS) [ASPERPYRONE A]
fold change (FC) [1]: 7.03 | fold change (FC) [2]: 3.21 | Activity [3]: Dose-dependent effect | fold change (FC) [4]: 0.89 | fold change (FC) [5]: 1.16 | fold change (FC) [6]: 0.87 | fold change (FC) [7]: 5.66 | fold change (FC) [8]: 7.21 | fold change (FC) [9]: 0.42 | fold change (FC) [10]: 1.99 | fold change (FC) [11]: 1.54 | Activity [12]: Dose-dependent effect | IC50 [12]: 8.6 µM | Activity [13]: Dose-dependent effect | fold change (FC) [14]: 4.02 | fold change (FC) [15]: 0.78 | fold change (FC) [16]: 0.68 | Activity [17]: Dose-dependent effect | fold change (FC) [18]: 1.12 | fold change (FC) [19]: 1.03 | fold change (FC) [20]: 3.69 | fold change (FC) [21]: 0.81 | fold change (FC) [22]: 1.12 | fold change (FC) [23]: 12.92 | fold change (FC) [24]: 7.56 | fold change (FC) [25]: 0.98 | fold change (FC) [26]: 1.08 | Activity [27]: Non-Toxic | fold change (FC) [28]: 2.57
